Measurements published in patent US20260356819A1, “OXOISOINDOLINYL-SUBSTITUTED […] DERIVATIVE AND USE THEREOF” (GLUETACS THERAPEUTICS (SHANGHAI) CO., LTD., priority 2023, published 2026).

Legend:
[1] = test system: MV-4-11 cells; assay: Inhibition of proliferation of myeloid monocytic leukemia cells MV-4-11 (cell viability assay, 96 h); type: cell-based, human; conditions: read-out: inhibitory activity (IC50) against tumor cells proliferation, MV-4-11
Description: (§1) The tumor cells used herein were cultured in a cell culture medium listed in table 2 at 37 °C in an incubator with 5% CO2. Prior to experimentation, all cell lines used were correctly identified by STR profiling, and tested negative for Mycoplasma contamination using a Mycoplasma detection kit through routine screenings.
(§2) The IC50 values of the compounds of the present disclosure (including the compounds in Table 1, and Examples 1-498) were determined using the CellTiter-Meiluncell Luminescent Cell Viability Assay Kit from Dalian Meilun Biotech Co., Ltd. The detailed procedure is as follows: Tumor cells were seeded in 96-well cell culture plates at the densities specified in Table 3. On the following day, the test compounds of the present disclosure were subjected to serial dilution. […] Subsequently, 0.5 μL of the test compound dilution was transferred into the 96-well plate containing the cells, with each well containing 100 μL of cell culture medium. […] Into the 96-well plate, the diluted test compounds and corresponding detection reagents were added, resulting in final test compound concentrations of 500 nM and 10 nM, respectively. The experimental procedure is described below using the diluted 2 μM test compound as an example.
(§3) 0.5 μL of the aforementioned diluted compound of the present disclosure (including the compounds in Table 1, and Examples 1-498) was added to the seeded cells in 100 μL of medium, yielding a final test compound concentration of 10 nM. After the cells were treated with the compounds of the present disclosure for a specified period, the cell viability assay reagent was added to the culture medium according to the kit's instructions to determine cell viability. […] All controls were treated using the same procedure as the compounds of the present disclosure. The growth inhibition curves for the compounds of the present disclosure were plotted using Prism GraphPad software, and the IC50 values were calculated therefrom.

[2] = target: T1, IKZF2 (Homo sapiens, UniProt Q96SW2+Q9UKS7); assay: Western blot degradation of IKZF2 in hPBMCs (24 h); type: cell-based; conditions: compounds at 50 nM and 500 nM
T1 construct: The supernatant was aspirated as the extracted total cell protein; endogenous in cells; host or cells: human peripheral blood mononuclear cells (hPBMCs)
T1 sequence (Q9UKS7 whole entry): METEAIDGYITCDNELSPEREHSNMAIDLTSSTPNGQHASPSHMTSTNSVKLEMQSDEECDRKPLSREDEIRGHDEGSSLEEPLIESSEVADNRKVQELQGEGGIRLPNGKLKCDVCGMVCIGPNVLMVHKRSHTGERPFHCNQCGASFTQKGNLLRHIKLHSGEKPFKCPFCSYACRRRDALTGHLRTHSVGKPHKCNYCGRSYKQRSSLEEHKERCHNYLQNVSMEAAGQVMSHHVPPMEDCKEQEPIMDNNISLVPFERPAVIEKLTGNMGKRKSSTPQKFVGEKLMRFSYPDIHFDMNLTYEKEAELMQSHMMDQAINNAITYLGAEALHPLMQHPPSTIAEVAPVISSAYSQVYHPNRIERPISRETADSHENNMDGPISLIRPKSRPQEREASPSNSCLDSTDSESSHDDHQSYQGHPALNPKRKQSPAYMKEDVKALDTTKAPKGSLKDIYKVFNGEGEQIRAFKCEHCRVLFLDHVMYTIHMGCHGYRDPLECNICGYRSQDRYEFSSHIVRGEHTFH
T1 sequence (Q96SW2 whole entry): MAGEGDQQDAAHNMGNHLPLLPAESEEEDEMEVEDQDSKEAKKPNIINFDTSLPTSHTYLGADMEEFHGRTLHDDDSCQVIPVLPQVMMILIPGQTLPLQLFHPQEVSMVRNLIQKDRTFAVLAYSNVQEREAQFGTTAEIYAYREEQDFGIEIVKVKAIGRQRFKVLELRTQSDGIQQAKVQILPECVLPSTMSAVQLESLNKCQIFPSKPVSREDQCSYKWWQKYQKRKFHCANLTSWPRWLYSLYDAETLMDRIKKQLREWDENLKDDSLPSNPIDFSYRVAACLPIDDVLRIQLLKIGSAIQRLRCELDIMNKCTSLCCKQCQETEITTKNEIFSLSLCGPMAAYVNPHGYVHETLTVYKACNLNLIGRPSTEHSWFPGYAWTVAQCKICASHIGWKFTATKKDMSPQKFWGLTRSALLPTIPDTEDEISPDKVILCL
T1 sequence (Q16531 whole entry partner): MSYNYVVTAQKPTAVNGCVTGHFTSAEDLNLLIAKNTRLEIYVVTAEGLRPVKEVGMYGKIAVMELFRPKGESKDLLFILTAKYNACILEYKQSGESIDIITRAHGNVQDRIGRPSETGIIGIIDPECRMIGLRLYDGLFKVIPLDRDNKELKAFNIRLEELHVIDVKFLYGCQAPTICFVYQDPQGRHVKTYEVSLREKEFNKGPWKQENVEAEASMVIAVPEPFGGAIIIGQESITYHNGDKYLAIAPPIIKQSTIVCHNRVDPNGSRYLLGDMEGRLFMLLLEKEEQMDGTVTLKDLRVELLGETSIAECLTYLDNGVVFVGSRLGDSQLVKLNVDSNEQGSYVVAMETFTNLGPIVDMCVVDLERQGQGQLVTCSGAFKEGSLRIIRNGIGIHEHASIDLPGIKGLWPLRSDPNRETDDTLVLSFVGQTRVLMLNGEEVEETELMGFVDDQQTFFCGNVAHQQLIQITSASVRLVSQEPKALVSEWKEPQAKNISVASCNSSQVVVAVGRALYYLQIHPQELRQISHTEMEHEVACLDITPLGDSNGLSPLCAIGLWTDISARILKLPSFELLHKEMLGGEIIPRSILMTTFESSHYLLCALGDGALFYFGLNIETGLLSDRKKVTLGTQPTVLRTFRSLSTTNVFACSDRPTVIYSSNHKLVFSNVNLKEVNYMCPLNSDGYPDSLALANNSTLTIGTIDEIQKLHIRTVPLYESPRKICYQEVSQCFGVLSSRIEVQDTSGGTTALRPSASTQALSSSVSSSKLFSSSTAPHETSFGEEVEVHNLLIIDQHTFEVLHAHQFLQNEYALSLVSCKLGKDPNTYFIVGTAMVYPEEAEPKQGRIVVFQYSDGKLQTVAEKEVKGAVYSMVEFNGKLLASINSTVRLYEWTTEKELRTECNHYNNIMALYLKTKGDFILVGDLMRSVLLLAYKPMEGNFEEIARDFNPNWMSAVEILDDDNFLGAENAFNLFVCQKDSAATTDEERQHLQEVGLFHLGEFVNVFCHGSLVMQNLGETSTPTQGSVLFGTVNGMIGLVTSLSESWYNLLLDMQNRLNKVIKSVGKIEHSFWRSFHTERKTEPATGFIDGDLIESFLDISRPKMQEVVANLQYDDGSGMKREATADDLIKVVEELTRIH
Outline: (§4)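 Degradation in primary human PBMCs after 24 h compound exposure at 50 and 500 nM. Western blot band intensities, normalised to an internal control protein, expressed as % protein remaining relative to DMSO.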

[3] = target: T2, WEE1 (Homo sapiens, UniProt P30291+Q96SW2); assay: Western blot degradation of WEE1 in hPBMCs (24 h); type: cell-based; conditions: compounds at 50 nM and 500 nM
T2 construct: The supernatant was aspirated as the extracted total cell protein; endogenous in cells; host or cells: human peripheral blood mononuclear cells (hPBMCs)
T2 sequence (P30291 whole entry): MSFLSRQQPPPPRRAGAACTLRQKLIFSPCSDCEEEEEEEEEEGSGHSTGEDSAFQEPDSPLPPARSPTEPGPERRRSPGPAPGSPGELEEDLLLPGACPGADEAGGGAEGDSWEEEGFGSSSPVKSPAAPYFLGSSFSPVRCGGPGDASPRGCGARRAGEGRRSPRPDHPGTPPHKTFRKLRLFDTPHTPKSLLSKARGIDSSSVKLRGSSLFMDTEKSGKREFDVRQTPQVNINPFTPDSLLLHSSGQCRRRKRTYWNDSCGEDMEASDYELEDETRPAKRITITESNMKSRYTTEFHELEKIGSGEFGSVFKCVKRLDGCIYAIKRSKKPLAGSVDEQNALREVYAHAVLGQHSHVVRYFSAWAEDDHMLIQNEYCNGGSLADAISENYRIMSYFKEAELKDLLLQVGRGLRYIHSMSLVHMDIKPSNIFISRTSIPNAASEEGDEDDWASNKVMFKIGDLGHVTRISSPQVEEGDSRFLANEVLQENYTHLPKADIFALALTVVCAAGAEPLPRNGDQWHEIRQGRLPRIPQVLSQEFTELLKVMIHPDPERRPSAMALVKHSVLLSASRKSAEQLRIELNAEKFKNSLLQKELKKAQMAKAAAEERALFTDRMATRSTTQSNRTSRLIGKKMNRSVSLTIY
T2 sequence (Q96SW2 whole entry): as the sequence (Q96SW2 whole entry) above
T2 sequence (Q16531 whole entry partner): as the sequence (Q16531 whole entry partner) above
Outline: as §4

[4] = target: T3, IKZF3 (Homo sapiens, UniProt Q96SW2+Q9UKT9); assay: Western blot degradation of IKZF3 in hPBMCs (24 h); type: cell-based; conditions: compounds at 50 nM and 500 nM
T3 construct: The supernatant was aspirated as the extracted total cell protein; endogenous in cells; host or cells: human peripheral blood mononuclear cells (hPBMCs)
T3 sequence (Q9UKT9 whole entry): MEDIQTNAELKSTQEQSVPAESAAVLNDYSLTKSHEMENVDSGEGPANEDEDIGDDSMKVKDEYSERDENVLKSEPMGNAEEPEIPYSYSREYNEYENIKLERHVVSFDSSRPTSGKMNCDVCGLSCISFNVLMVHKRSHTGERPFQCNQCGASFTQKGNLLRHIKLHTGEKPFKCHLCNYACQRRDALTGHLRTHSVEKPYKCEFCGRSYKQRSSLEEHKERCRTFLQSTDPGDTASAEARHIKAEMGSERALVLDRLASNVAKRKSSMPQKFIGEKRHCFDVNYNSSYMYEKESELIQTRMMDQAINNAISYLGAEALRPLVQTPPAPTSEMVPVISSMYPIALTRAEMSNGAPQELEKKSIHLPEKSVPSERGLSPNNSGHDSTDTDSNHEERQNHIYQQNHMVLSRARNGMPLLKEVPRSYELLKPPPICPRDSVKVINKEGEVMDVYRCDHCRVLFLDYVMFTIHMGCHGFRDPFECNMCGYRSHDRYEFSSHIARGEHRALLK
T3 sequence (Q96SW2 whole entry): as the sequence (Q96SW2 whole entry) above
T3 sequence (Q16531 whole entry partner): as the sequence (Q16531 whole entry partner) above
Outline: as §4

[5] = target: T4, GSPT1 (Homo sapiens, UniProt P15170+Q96SW2); assay: Western blot degradation of GSPT1 in hPBMCs (24 h); type: cell-based; conditions: compounds at 50 nM and 500 nM
T4 construct: The supernatant was aspirated as the extracted total cell protein; endogenous in cells; host or cells: human peripheral blood mononuclear cells (hPBMCs)
T4 sequence (P15170 whole entry): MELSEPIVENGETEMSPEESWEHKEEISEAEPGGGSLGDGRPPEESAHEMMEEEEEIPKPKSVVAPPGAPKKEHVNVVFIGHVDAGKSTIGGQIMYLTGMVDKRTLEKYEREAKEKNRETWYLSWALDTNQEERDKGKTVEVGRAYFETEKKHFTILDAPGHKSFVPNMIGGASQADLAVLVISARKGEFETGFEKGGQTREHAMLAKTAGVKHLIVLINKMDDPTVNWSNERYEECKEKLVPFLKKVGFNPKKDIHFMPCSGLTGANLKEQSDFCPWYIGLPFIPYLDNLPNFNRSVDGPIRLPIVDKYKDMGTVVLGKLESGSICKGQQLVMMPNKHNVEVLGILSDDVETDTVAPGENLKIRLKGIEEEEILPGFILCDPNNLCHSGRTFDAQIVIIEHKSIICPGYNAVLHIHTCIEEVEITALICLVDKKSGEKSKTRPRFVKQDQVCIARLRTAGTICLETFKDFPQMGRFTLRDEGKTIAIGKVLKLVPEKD
T4 sequence (Q96SW2 whole entry): as the sequence (Q96SW2 whole entry) above
T4 sequence (Q16531 whole entry partner): as the sequence (Q16531 whole entry partner) above
Outline: as §4

[6] = target: T5, IKZF1 (Homo sapiens, UniProt Q13422+Q96SW2); assay: Western blot degradation of IKZF1 in hPBMCs (24 h); type: cell-based; conditions: compounds at 50 nM and 500 nM
T5 construct: The supernatant was aspirated as the extracted total cell protein; endogenous in cells; host or cells: human peripheral blood mononuclear cells (hPBMCs)
T5 sequence (Q13422 whole entry): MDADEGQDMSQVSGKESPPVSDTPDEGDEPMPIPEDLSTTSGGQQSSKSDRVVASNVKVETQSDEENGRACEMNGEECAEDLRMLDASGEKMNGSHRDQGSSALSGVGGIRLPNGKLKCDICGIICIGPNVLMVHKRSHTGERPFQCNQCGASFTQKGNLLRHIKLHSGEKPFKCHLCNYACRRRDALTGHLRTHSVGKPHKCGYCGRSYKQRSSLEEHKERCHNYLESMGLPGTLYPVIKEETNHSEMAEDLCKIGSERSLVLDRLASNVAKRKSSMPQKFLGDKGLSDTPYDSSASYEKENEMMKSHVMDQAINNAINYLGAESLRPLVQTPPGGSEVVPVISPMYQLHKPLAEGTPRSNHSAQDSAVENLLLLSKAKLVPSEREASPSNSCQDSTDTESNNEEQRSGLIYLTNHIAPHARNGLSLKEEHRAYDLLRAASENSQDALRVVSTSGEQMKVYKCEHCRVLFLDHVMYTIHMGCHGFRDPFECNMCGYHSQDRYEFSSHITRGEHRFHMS
T5 sequence (Q96SW2 whole entry): as the sequence (Q96SW2 whole entry) above
T5 sequence (Q16531 whole entry partner): as the sequence (Q16531 whole entry partner) above
Outline: as §4

[7] = target: T6, CK1α (Homo sapiens, UniProt P48729+Q96SW2); assay: Western blot degradation of CK1α in hPBMCs (24 h); type: cell-based; conditions: compounds at 50 nM and 500 nM
T6 construct: The supernatant was aspirated as the extracted total cell protein; endogenous in cells; host or cells: human peripheral blood mononuclear cells (hPBMCs)
Outline: as §4

[8] = test system: Jurkat cells; assay: Inhibition of proliferation of T lymphocytic leukemia cells Jurkat (cell viability assay, 96 h); type: cell-based, human; conditions: read-out: inhibitory activity (IC50) against tumor cells proliferation, Jurkat
Description: as §1, §2, §3

[9] = test system: MM.1S cells; assay: Inhibition of proliferation of multiple myeloma cells MM.1S (cell viability assay, 96 h); type: cell-based, human; conditions: read-out: inhibitory activity (IC50) against tumor cells proliferation, MM.1S

SMILES	IC50 [1] [nM]	IKZF2 substrate protein remaining % [2]	WEE1 substrate protein remaining % [3]	IKZF3 substrate protein remaining % [4]	GSPT1 substrate protein remaining % [5]	IKZF1 substrate protein remaining % [6]	CK1α substrate protein remaining % [7]	IC50 [8] [nM]	IC50 [9] [nM]
O=C1CCN(N2Cc3cc(CN4CCN(c5ccc(C(F)(F)F)cc5)CC4)ccc3C2=O)C(=O)N1 [GT-06700, 1-(1-oxo-5-((4-(4-(trifluoromethyl)phenyl)piperazin-1-yl)methyl)isoindolin-2-yl)dihydropyrimidine-2,4(1H,3H)-dione]	50 to 100								
O=C1CCN(N2Cc3cc(CN4CCN(c5ccccc5Cl)CC4)ccc3C2=O)C(=O)N1 [GT-06703, 1-(5-((4-(2-chlorophenyl)piperazin-1-yl)methyl)-1-oxoisoindolin-2-yl)dihydropyrimidine-2,4(1H,3H)-dione]	500 to 1000	B (80%< substrate protein remaining % ≤100%)	B (80%< substrate protein remaining % ≤100%)	B (80%< substrate protein remaining % ≤100%)	A (0% ≤ substrate protein remaining % ≤80%)	B (80%< substrate protein remaining % ≤100%)	A (0% ≤ substrate protein remaining % ≤80%)		
O=C1CCN(N2Cc3cc(CN4CC=C(c5n[nH]c6cc(F)ccc56)CC4)ccc3C2=O)C(=O)N1 [GT-07578, 1-(5-((4-(6-fluoro-1H-indazol-3-yl)-3,6-dihydropyridin-1(2H)-yl)methyl)-1-oxoisoindolin-2-yl)dihydropyrimidine-2,4(1H,3H)-dione]		A (0% ≤ substrate protein remaining % ≤80%)	A (0% ≤ substrate protein remaining % ≤80%)	B (80%< substrate protein remaining % ≤100%)	A (0% ≤ substrate protein remaining % ≤80%)	A (0% ≤ substrate protein remaining % ≤80%)	B (80%< substrate protein remaining % ≤100%)	50 to 100	50 to 100
O=C1CCN(N2Cc3cc(CN4CCN(c5ccccc5)CC4)ccc3C2=O)C(=O)N1 [GT-06696, 1-(1-oxo-5-((4-phenylpiperazin-1-yl)methyl)isoindolin-2-yl)dihydropyrimidine-2,4(1H,3H)-dione]	100 to 300	B (80%< substrate protein remaining % ≤100%)	B (80%< substrate protein remaining % ≤100%)	B (80%< substrate protein remaining % ≤100%)	A (0% ≤ substrate protein remaining % ≤80%)	B (80%< substrate protein remaining % ≤100%)	B (80%< substrate protein remaining % ≤100%)		
O=C1CCN(N2Cc3cc(CN4CCN(c5cccc(Br)c5)CC4)ccc3C2=O)C(=O)N1 [GT-06698, 1-(5-((4-(3-bromophenyl)piperazin-1-yl)methyl)-1-oxoisoindolin-2-yl)dihydropyrimidine-2,4(1H,3H)-dione]	100 to 300	B (80%< substrate protein remaining % ≤100%)	B (80%< substrate protein remaining % ≤100%)	B (80%< substrate protein remaining % ≤100%)	A (0% ≤ substrate protein remaining % ≤80%)	B (80%< substrate protein remaining % ≤100%)	B (80%< substrate protein remaining % ≤100%)		
O=C1CCN(N2Cc3cc(CN4CCN(c5ccc(Cl)cc5)CC4)ccc3C2=O)C(=O)N1 [GT-06765, 1-(5-((4-(4-chlorophenyl)piperazin-1-yl)methyl)-1-oxoisoindolin-2-yl)dihydropyrimidine-2,4(1H,3H)-dione]	500 to 1000	B (80%< substrate protein remaining % ≤100%)	B (80%< substrate protein remaining % ≤100%)	B (80%< substrate protein remaining % ≤100%)	B (80%< substrate protein remaining % ≤100%)	B (80%< substrate protein remaining % ≤100%)	A (0% ≤ substrate protein remaining % ≤80%)		
O=C1CCN(N2Cc3cc(CN4CCC(c5ccccc5)CC4)ccc3C2=O)C(=O)N1 [GT-06884, 1-(1-oxo-5-((4-phenylpiperidin-1-yl)methyl)isoindolin-2-yl)dihydropyrimidine-2,4(1H,3H)-dione]	500 to 1000	B (80%< substrate protein remaining % ≤100%)	B (80%< substrate protein remaining % ≤100%)	B (80%< substrate protein remaining % ≤100%)	A (0% ≤ substrate protein remaining % ≤80%)	B (80%< substrate protein remaining % ≤100%)	B (80%< substrate protein remaining % ≤100%)		
O=C1CCN(N2Cc3cc(CN4CC=C(c5cccc6c(F)cccc56)CC4)ccc3C2=O)C(=O)N1 [GT-07590, 1-(5-((4-(5-fluoronaphthalen-1-yl)-3,6-dihydropyridin-1(2H)-yl)methyl)-1-oxoisoindolin-2-yl)dihydropyrimidine-2,4(1H,3H)-dione]		A (0% ≤ substrate protein remaining % ≤80%)	A (0% ≤ substrate protein remaining % ≤80%)	A (0% ≤ substrate protein remaining % ≤80%)	A (0% ≤ substrate protein remaining % ≤80%)	A (0% ≤ substrate protein remaining % ≤80%)	B (80%< substrate protein remaining % ≤100%)	50 to 100	10 to 50
O=C1CCN(N2Cc3cc(CN4CCN(c5cc(Cl)ccc5Cl)CC4)ccc3C2=O)C(=O)N1 [GT-06773, 1-(5-((4-(2,5-dichlorophenyl)piperazin-1-yl)methyl)-1-oxoisoindolin-2-yl)dihydropyrimidine-2,4(1H,3H)-dione]	100 to 300	A (0% ≤ substrate protein remaining % ≤80%)	A (0% ≤ substrate protein remaining % ≤80%)	A (0% ≤ substrate protein remaining % ≤80%)	A (0% ≤ substrate protein remaining % ≤80%)	B (80%< substrate protein remaining % ≤100%)	A (0% ≤ substrate protein remaining % ≤80%)		
O=C1CCN(N2Cc3cc(CN4CC=C(c5ccnc(Cl)c5Cl)CC4)ccc3C2=O)C(=O)N1 [GT-07432, 1-(5-((2′,3′-dichloro-3,6-dihydro-[4,4′-bipyridin]-1(2H)-yl)methyl)-1-oxoisoindolin-2-yl)dihydropyrimidine-2,4(1H,3H)-dione]		A (0% ≤ substrate protein remaining % ≤80%)	A (0% ≤ substrate protein remaining % ≤80%)	A (0% ≤ substrate protein remaining % ≤80%)	A (0% ≤ substrate protein remaining % ≤80%)	A (0% ≤ substrate protein remaining % ≤80%)	A (0% ≤ substrate protein remaining % ≤80%)	500 to 1000	300 to 500
O=C1CCN(N2Cc3cc(CN4CC=C(c5c[nH]c6ncccc56)CC4)ccc3C2=O)C(=O)N1 [GT-07577, 1-(5-((4-(1H-pyrrolo[2,3-b]pyridin-3-yl)-3,6-dihydropyridin-1 (2H)-yl)methyl)-1-oxoisoindolin-2-yl)dihydropyrimidine-2,4(1H,3H)-dione]		B (80%< substrate protein remaining % ≤100%)	A (0% ≤ substrate protein remaining % ≤80%)	A (0% ≤ substrate protein remaining % ≤80%)	A (0% ≤ substrate protein remaining % ≤80%)	A (0% ≤ substrate protein remaining % ≤80%)	A (0% ≤ substrate protein remaining % ≤80%)	500 to 1000	300 to 500
